Among the data in ChEMBL document CHEMBL1152263, “Perylene-conjugated pyrrole polyamide as a sequence-specific fluorescent probe” (Bioorg Med Chem, 2008) are Activity values, retold here.

The source made the active and inactive calls. The rule behind the calls is not given here.

A short description of experiment [1]: Binding affinity to ODN1/2 double strand DNA by fluorescence spectra.
Experiment [2] can be described thus: Binding affinity to AT-rich sequence of double strand DNA by fluorescence spectra.

Regarding `CC(=O)Nc1cc(C(=O)Nc2cc(C(=O)NCCC(=O)Nc3cc(C(=O)Nc4cc(C(=O)NCCC(=O)NCCCN(C)C)n(C)c4)n(C)c3)n(CC#Cc3ccc4c5cccc6cccc(c7cccc3c74)c65)c2)n(C)c1`, the result in experiment [1] and in experiment [2] was Active.
